Source: US9394311B2, “Triazolo compounds as PDE10 inhibitors” (Hoffmann-La Roche Inc., priority 2012, dated 2016)

molecular target: human PDE10A (Homo sapiens (Human), UniProt Q9Y233); experiment: human PDE10A full length Scintillation Proximity Assay (SPA); format: biochemical; conditions: PDE10A full length enzyme, 50 nM cGMP / [3H]-cGMP substrate, 20 minutes at room temperature
Procedure: The following test was carried out in order to determine the activity of the compounds of the present invention. PDE10 activity of the compounds of the present invention was determined using a Scintillation Proximity Assay (SPA)-based method similar to the one previously described (Fawcett, L. et al., Proc Natl Acad Sci USA (2000) 97(7):3702-3707).
The human PDE10A full length assay was performed in 96-well micro titer plates. The reaction mixture of 50 μl contained 20 mM HEPES pH=7.5/10 mM MgCl2/0.05 mg/ml BSA (Sigma cat. # A-7906), 50 nM cGMP (Sigma, cat. # G6129) and 50 nM [3H]-cGMP (GE Healthcare, cat. # TRK392 S.A. 13.2 Ci/mmol), 3.75 ng/well PDE10A enzyme (Enzo Life Science, Lausen, Switzerland cat # SE-534) with or without a specific test compound. A range of concentrations of the potential inhibitor was used to generate data for calculating the concentration of inhibitor resulting in 50% of the effect (e.g. IC50, the concentration of the competitor inhibiting PDE10A activity by 50%). Non-specific activity was tested without the enzyme. The reaction was initiated by the addition of the substrate solution (cGMP and [3H]-cGMP) and allowed to progress for 20 minutes at room temperature. The reaction was terminated by adding 25 μl of YSi-SPA scintillation beads (GE Healthcare, cat. # RPNQ0150) in 18 mM zinc sulphate solution (stop reagent). After 1 h under shaking, the plate was centrifuged one minute at 170 g to allow beads to settle. Afterwards, radioactive counts were measured on a Perkin Elmer Top-Count Scintillation plate reader.

human PDE10A, sequence (Q9Y233 other isoform, or with tags, fused parts or gaps): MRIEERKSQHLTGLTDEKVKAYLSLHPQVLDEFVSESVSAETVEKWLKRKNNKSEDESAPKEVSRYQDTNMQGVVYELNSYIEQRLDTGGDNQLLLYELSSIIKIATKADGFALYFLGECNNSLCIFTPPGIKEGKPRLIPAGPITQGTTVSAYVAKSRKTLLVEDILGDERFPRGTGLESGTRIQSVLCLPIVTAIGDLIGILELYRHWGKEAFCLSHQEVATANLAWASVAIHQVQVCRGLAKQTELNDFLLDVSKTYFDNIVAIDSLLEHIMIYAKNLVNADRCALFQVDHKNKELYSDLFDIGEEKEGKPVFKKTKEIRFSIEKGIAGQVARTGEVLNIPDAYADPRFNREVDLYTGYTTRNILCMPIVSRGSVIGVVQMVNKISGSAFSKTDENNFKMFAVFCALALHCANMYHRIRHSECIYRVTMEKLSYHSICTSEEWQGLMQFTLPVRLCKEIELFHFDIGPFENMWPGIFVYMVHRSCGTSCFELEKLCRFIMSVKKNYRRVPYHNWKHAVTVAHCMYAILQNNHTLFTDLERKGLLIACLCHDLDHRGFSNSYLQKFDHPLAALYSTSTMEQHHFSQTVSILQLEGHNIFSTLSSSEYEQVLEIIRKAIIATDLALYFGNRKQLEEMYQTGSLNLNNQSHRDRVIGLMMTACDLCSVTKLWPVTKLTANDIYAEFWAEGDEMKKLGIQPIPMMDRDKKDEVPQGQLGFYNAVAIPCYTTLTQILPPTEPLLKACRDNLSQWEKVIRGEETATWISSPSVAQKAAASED

SMILES	IC50 [nM]
Cc1c(Cl)cc(Cl)c2nc(CCc3nc(N4CCCC4)nn3C)nn12 [Example 52, 6,8-Dichloro-5-methyl-2-[2-(2-methyl-5-pyrrolidin-1-yl-2H-[1,2,4]triazol-3-yl)-ethyl]-[1,2,4]triazolo[1,5-a]pyridine]	0.63
Cc1c(Cl)cc(C(F)(F)F)c2nc(CCc3nc(N4CCC(F)(F)C4)nn3C)nn12 [Example 88, 6-Chloro-2-{2-[5-(3,3-difluoro-pyrrolidin-1-yl)-2-methyl-2H-[1,2,4]triazol-3-yl]-ethyl}-5-methyl-8-trifluoromethyl-[1,2,4]triazolo[1,5-c]pyridine]	9.78
Cc1cc(Cl)c(C)n2nc(/C=C/c3nc(N4CCCC4)n(C)n3)nc12 [Example 35, 6-Chloro-5,8-dimethyl-2-(2-(1-methyl-5-(pyrrolidin-1-yl)-1H-1,2,4-triazol-3-yl)vinyl)-[1,2,4]triazolo[1,5-a]pyridine]	0.15
Cc1ncc(C)n2nc(CCc3nc(N4CCC[C@@H]4C)nn3C)nc12 [Example 100, 5,8-Dimethyl-2-{2-[2-methyl-5-((S)-2-methyl-pyrrolidin-1-yl)-2H-[1,2,4]triazol-3-yl]-ethyl}-[1,2,4]triazolo[1,5-a]pyrazine]	5.5
Cc1cc(C)n2nc(CCc3nc(N4CCCC4)nn3CC(F)(F)F)nc2n1 [Example 22, 5,7-Dimethyl-2-{2-[5-pyrrolidin-1-yl-2-(2,2,2-trifluoro-ethyl)-2H-[1,2,4]triazol-3-yl]-ethyl}-[1,2,4]triazolo[1,5-a]pyrimidine]	20.4
CCn1nc(N2CCCC2)nc1CCc1nc2ccccc2nc1C [Example 33, 2-[2-(2-Ethyl-5-pyrrolidin-1-yl-2H-[1,2,4]triazol-3-yl)-ethyl]-3-methyl-quinoxaline]	55
Cc1ncc(C)n2nc(/C=C/c3nc(N4CCCCCC4)nn3C)nc12 [Example 102, 2-[(E)-2-(5-Azepan-1-yl-2-methyl-2H-[1,2,4]triazol-3-yl)-vinyl]-5,8-dimethyl-[1,2,4]triazolo[1,5-a]pyrazine]	179
Cc1nc(C)c2nc(CCc3nc(N4CCCC4)nn3C)nn2c1C [Example 41, 5,6,8-Trimethyl-2-(2-(1-methyl-3-(pyrrolidin-1-yl)-1H-1,2,4-triazol-5-yl)ethyl)-[1,2,4]triazolo[1,5-a]pyrazine]	37.3
Cc1c(Cl)cc(Br)c2nc(CCc3nc(N4CCCC4)nn3C)nn12 [Example 71, 8-Bromo-6-chloro-5-methyl-2-[2-(2-methyl-5-pyrrolidin-1-yl-2H-[1,2,4]triazol-3-yl)-ethyl]-[1,2,4]triazolo[1,5-a]pyridine]	1.01
Cc1c(Cl)cc(C(F)(F)F)c2nc(CCc3nc(N4CCCC4)n(C4CC4)n3)nn12 [Example 131, 6-Chloro-2-(2-(1-cyclopropyl-5-(pyrrolidin-1-yl)-1H-1,2,4-triazol-3-yl)ethyl)-5-methyl-8-(trifluoromethyl)-[1,2,4]triazolo[1,5-a]pyridine]	1.58
Cc1nc2ccccc2nc1/C=C/c1nc(N2CCCC2)nn1C [Example 15, 2-Methyl-3-[2-(2-methyl-5-pyrrolidin-1-yl-2H-[1,2,4]triazol-3-yl)-vinyl]-quinoxaline]	105
CCN(C)c1nc(CCc2nc3c(C)ncc(C)n3n2)n(C)n1 [Example 23, {5-[2-(5,8-Dimethyl-[1,2,4]triazolo[1,5-a]pyrazin-2-yl)-ethyl]-1-methyl-1H-[1,2,4]triazol-3-yl}-ethyl-methyl-amine]	103
Cc1ncc(C)n2nc(CCc3nc(N4CCCCC4)nn3C)nc12 [Example 49, 5,8-Dimethyl-2-[2-(2-methyl-5-piperidin-1-yl-2H-[1,2,4]triazol-3-yl)-ethyl]-[1,2,4]triazolo[1,5-a]pyrazine]	31.6
COC1CCN(c2nc(CCc3nc4c(C)ncc(C)n4n3)n(C)n2)C1 (stereo not drawn) [Example 43, 2-{2-[5-(3-Methoxy-pyrrolidin-1-yl)-2-methyl-2H-[1,2,4]triazol-3-yl]-ethyl}-5,8-dimethyl-[1,2,4]triazolo[1,5-a]pyrazine]	84.3
CCn1nc(N2CCCC2)nc1CCc1nc2nc(C)cc(C)n2n1 [Example 4, 2-[2-(2-Ethyl-5-pyrrolidin-1-yl-2H-[1,2,4]triazol-3-yl)-ethyl]-5,7-dimethyl-[1,2,4]triazolo[1,5-a]pyrimidine]	10.9
Cc1ncc(C)n2nc(CCc3nc(N4CC(C)C4)nn3C)nc12 [Example 89, 5,8-Dimethyl-2-{2-[2-methyl-5-(3-methyl-azetidin-1-yl)-2H-[1,2,4]triazol-3-yl]-ethyl}-[1,2,4]triazolo[1,5-a]pyrazine]	108
Cc1ncc(C)n2nc(CCc3nc(N4CCC4)nn3C)nc12 [Example 10, 2-[2-(5-Azetidin-1-yl-2-methyl-2H-[1,2,4]triazol-3-yl)-ethyl]-5,8-dimethyl-[1,2,4]triazolo[1,5-a]pyrazine]	1.4
COc1ccc(Cn2nc(C#Cc3nc4cc(Cl)ccn4n3)nc2N2CCCC2)cc1 [Example 19, 7-Chloro-2-[1-(4-methoxy-benzyl)-5-pyrrolidin-1-yl-1H-[1,2,4]triazol-3-ylethynyl]-[1,2,4]triazolo[1,5-a]pyridine]	477
COCCOc1cc(Cl)c(C)n2nc(CCc3nc(N4CCCC4)nn3C)nc12 [Example 119, 6-Chloro-8-(2-methoxyethoxy)-5-methyl-2-[2-(2-methyl-5-pyrrolidin-1-yl-1,2,4-triazol-3-yl)ethyl]-[1,2,4]triazolo[1,5-a]pyridine]	0.23
Cc1cc(Cl)c(C)n2nc([C@H]3C[C@@H]3c3nc(N4CCCC4)nn3C)nc12 [Example 46, 6-Chloro-5,8-dimethyl-2-[(1S,2S)-2-(2-methyl-5-pyrrolidin-1-yl-2H-[1,2,4]triazol-3-yl)-cyclopropyl]-[1,2,4]triazolo[1,5-a]pyridine]	4.98
Cc1cnc(C)n2nc(CCc3nc(N4CCCC4)nn3C)nc12 [Example 58, 5,8-Dimethyl-2-[2-(2-methyl-5-pyrrolidin-1-yl-2H-[1,2,4]triazol-3-yl)-ethyl]-[1,2,4]triazolo[1,5-c]pyrimidine]	8.21
Cc1ncc(C)n2nc(CCc3nc(N4CCCC4)nn3CC3CC3)nc12 [Example 117a, 2-[2-(2-Cyclopropylmethyl-5-pyrrolidin-1-yl-2H-[1,2,4]triazol-3-yl)-ethyl]-5,8-dimethyl-[1,2,4]triazolo[1,5-a]pyrazine]	1.32
Cc1ncc(C)n2nc(/C=C/c3nc(N(C)CC4CC4)nn3C)nc12 [Example 97, Cyclopropylmethyl-{5-[(E)-2-(5,8-dimethyl-[1,2,4]triazolo[1,5-a]pyrazin-2-yl)-vinyl]-1-methyl-1H-[1,2,4]triazol-3-yl}-methyl-amine]	79.3
Cc1c(Cl)cc(C(F)(F)F)c2nc(CCc3nc(N4CCCC4)nn3C3CCOCC3)nn12 [Example 122, 6-Chloro-5-methyl-2-(2-(3-(pyrrolidin-1-yl)-1-(tetrahydro-2H-pyran-4-yl)-1H-1,2,4-triazol-5-yl)ethyl)-8-(trifluoromethyl)-[1,2,4]triazolo[1,5-a]pyridine]	0.35
Cc1c(Cl)cc(C(F)(F)F)c2nc(CCc3nc(N4CC[C@@H](F)C4)nn3C)nn12 [Example 127, (R)-6-Chloro-2-(2-(3-(3-fluoropyrrolidin-1-yl)-1-methyl-1H-1,2,4-triazol-5-yl)ethyl)-5-methyl-8-(trifluoromethyl)-[1,2,4]triazolo[1,5-a]pyridine]	2.71
Cc1c(Cl)cc(C(F)F)c2nc(CCc3nc(N4CCCC4)nn3C)nn12 [Example 130, 6-Chloro-8-(difluoromethyl)-5-methyl-2-(2-(1-methyl-3-(pyrrolidin-1-yl)-1H-1,2,4-triazol-5-yl)ethyl)-[1,2,4]triazolo[1,5-a]pyridine]	0.89
Cc1ncc(C)n2nc(CCc3nc(N4CCC[C@@H]4C(F)(F)F)nn3C)nc12 [Example 114, 5,8-Dimethyl-2-{2-[2-methyl-5-((R)-2-trifluoromethyl-pyrrolidin-1-yl)-2H-[1,2,4]triazol-3-yl]-ethyl}-[1,2,4]triazolo[1,5-a]pyrazine]	34.2
Cc1ncc(C)n2nc(CCc3nc(N4CC[C@@H](C)C4)nn3C)nc12 [Example 116, 5,8-Dimethyl-2-{2-[2-methyl-5-((R)-3-methyl-pyrrolidin-1-yl)-2H-[1,2,4]triazol-3-yl]-ethyl}-[1,2,4]triazolo[1,5-a]pyrazine]	8.94
Cc1cc(C)n2nc(CCc3nc(N(C)C4CC4)nn3C)nc2n1 [Example 34, Cyclopropyl-{5-[2-(5,7-dimethyl-[1,2,4]triazolo[1,5-a]pyrimidin-2-yl)-ethyl]-1-methyl-1H-[1,2,4]triazol-3-yl}-methyl-amine]	128
Cc1c(Br)cc(Cl)c2nc(CCc3nc(N4CCCC4)nn3C)nn12 [Example 72, 6-Bromo-8-chloro-5-methyl-2-(2-(1-methyl-3-(pyrrolidin-1-yl)-1H-1,2,4-triazol-5-yl)ethyl)-[1,2,4]triazolo[1,5-a]pyridine]	1.22
